This passage reports IC50 results from US10149876B2, “Tripterygium wilfordii extracts to overcome chemotherapy resistance” (WESTERN UNIVERSITY OF HEALTH SCIENCES, priority 2012, dated 2018).

One experiment concerns K562 cells. As to the kind of experiment: SRB cell viability assay, daunorubicin-sensitive K562 cells. Type of experiment: cell-based, human. Particulars: Homo sapiens, K562, read-out: IC50 of drug when cells treated with drug only. On the procedure:
Cell culture of the above cell lines was performed as described in Example 2, except that 5,000, rather than 3,000 cells were plated per well for the K562, K562/Dox, BT474, SkBr3 lines.
Table 17 also contains the serially-diluted concentrations of drugs that each cell line was tested against.
Table 36 reports the cell viability data relating to pre-treatment with LTG-E prior to daunorubicin treatment. Table 37 reports control data obtained from cells that were not pre-treated with LGT-E prior to daunorubicin treatment. FIG. 15 summarizes the data of Tables 36 and 37 in a graphical format.

The test system of another experiment is K562/Dox cells. As to the kind of experiment: SRB cell viability assay, daunorubicin-resistant K562/Dox cells. Type of experiment: cell-based, human. Particulars: Homo sapiens.

Values joined by “and” are separate entries in the source; they are usually repeats but may differ in a detail not shown here. Equal entries are not always repeated. Where two headings read alike, the source gives them in different places.

`COc1cccc2c1C(=O)c1c(O)c3c(c(O)c1C2=O)C[C@@](O)(C(C)=O)C[C@@H]3O[C@H]1C[C@H](N)[C@H](O)[C@H](C)O1` [daunorubicin]: the concentration for half-maximal inhibition (IC50) (as a rule, the concentration at which inhibition is half-maximal) was 1.05 µM and 0.55 µg/mL in the experiment on K562 cells; 6.53 µM and 3.45 µg/mL in the experiment on K562/Dox cells (K562, read-out: IC50 of drug when cells pre-treated with Chemosensitizing Agent before drug treatment); 32.6 µM and 17.2 µg/mL in the experiment with K562/Dox cells (K562, read-out: IC50 of drug when cells treated with drug only).
